Experiment: Nanoflow ESI (NanoMate-QTOF), RNLC-NSI-MS of drug and metabolites
Settings: Vicriviroc and its metabolites, relative LC-MS response, M35 = 100
Description: For experiments described herein, high performance liquid chromatography (HPLC) separations of analytes were performed at room temperature using the first HPLC system referred to in FIG. 1 as “analytical HPLC”. […] The analytical HPLC column effluent was split (mixing tee 1 or T-1 in FIG. 1) so that 15-25% of the flow was directed to a second mixing tee (T-2 in FIG. 1) connected to the NSI source and 75-85% diverted to an auxiliary detector (e.g. a radioactivity detector (10-11) or a charged aerosol detector (12-13)). Separation of metabolites was achieved using the analytical HPLC system and programmed linear changes in mobile phase composition as shown in Table 1.
A second HPLC pump, referred to in FIG. 1 as the “Response Normalizing HPLC”, was used to deliver an exactly inverse gradient. Inverse gradient was achieved by switching the aqueous mobile phase to pump B and the organic mobile phase to pump A and using the same gradient program as the one used in the analytical HPLC system. The flow rate of the Response Normalizing HPLC system was maintained between 0.1 and 0.2 mL/min. […] The “Response Normalizing Flow” was introduced into the NSI source via a second mixing tee (T-2). HPLC flows from the analytical HPLC and from the “Response Normalizing HPLC” were combined in the second mixing tee (T-2). The combined flow was delivered to the NSI (NanoMate, API, or any other ion sources) via a union (referred in FIG. 1 as “bulkhead”). For NSI experiments, the combined flow is further split using a mixing tee. The split ratio within the NSI source was manipulated by adjusting the various diameters and lengths of fused silica capillary tubing used to deliver the flow to MS and the fraction collector/waste. Approximately 1-5% of the combined flow was delivered to the NSI source for MS analysis.

Structure (SMILES): COC[C@@H](c1ccc(C(F)(F)F)cc1)N1CCN(C2(C)CCN(C(=O)c3c(C)ncnc3C)CC2)C[C@@H]1C [Vicriviroc]
- Nanoflow ESI (NanoMate-QTOF) 0.15 mL/min Normalizing HPLC flow (0.15 mL/min normalizing flow): 23.0
- Nanoflow ESI (NanoMate-QTOF) 0.2 mL/min Normalizing HPLC flow (0.2 mL/min normalizing flow): 14.3
- Nanoflow ESI (NanoMate-QTOF) Without Normalizing HPLC flow (no normalizing flow): 50.0

Source: US20080173808A1, “PROCESS AND DEVICE FOR RESPONSE NORMALIZED LIQUID CHROMATOGRAPHY NANOSPRAY IONIZATION MASS SPECTROMETRY (RNLC-NSI-MS)” (Schering Corporation, priority 2007, published 2008)
